# System: IMQ-induced mouse psoriasis model
# Experiment: Pharmacodynamic test in the IMQ-induced mouse psoriasis model
# Type: in vivo, female Balb/c mice
# Parameters: key to Skin PASI score Erythema / Skin PASI score Scaling / Skin PASI score Thickness: PASI component score, 0-4 points; key to Skin PASI Total Score: sum of erythema, scaling, thickness scores (each 0-4); key to Skin pathological score: sum of histopathology criterion points
# Details: for Epidermal thickness / IL-6 content in skin (ELISA) / Skin pathological score / Spleen weight / Spleen weight/body weight (spleen index) / TNF-alpha content in skin (ELISA): after 14 days of treatment
# Excerpt: The purpose of this test was to evaluate the pharmacodynamics of Compound (I) in the IMQ (5% imiquimod cream cream)-induced mouse psoriasis model. One of the clinical adverse effects of imiquimod is to induce the onset of psoriasis.
# • Test medicament: Compound (I) • Positive control medicament: dexamethasone (Dex) • Vehicle: 0.4% Tween 80/0.5% methylcellulose.
# • female Balb/c mice aged 5-6 weeks, number: 70.
# The animals were randomly divided into seven groups according to the body weights on the day before the start of the experiment.
# The animals were shaved on their back one day before applying the medicament, forming a skin exposure area having a size of about 2 cm×3 cm. The mice were induced by IMQ, and applied with 62.5 mg of 5% imiquimod cream on the bare back and the right ear at regular intervals every day for 14 days. Mice in the normal control group were applied with vaseline on the bare back and the right ear at regular intervals every day.
# The skin thickness was measured daily from the first day of the test until the end of the test.
# The skin thickness measurement method was as follows: the back skin and the subcutaneous tissue of the mouse were pinched with the thumb and the index finger of the left hand in the same direction as the mouse body; the skinfold thickness was measured 1 cm away from the pinched part of the left hand (near the center of the molding part) with a digital thickness gauge (with millesimal reading) held in the right hand (model BK-3281, manufacturer: Shanghai Niuhui). The thickness was in mm, and the actual thickness was the half of the measured thickness (the skin thickness=the measured value/2).
# The ear thickness was measured daily (at the center of the auricle).
# Skin photographs were taken daily from the first day of the test until the end of the test.
# The clinical symptoms were evaluated with the PASI evaluation standard from three indicators of the erythema (Erythema), the scale (Scaling) and the skin thickness (Thickness), and scored with 0-4 points. The total score was obtained by summing the three scores. The PASI evaluation standard was as follows: 0, asymptomatic; 1, mild; 2, moderate; 3, severe; 4, extremely severe.
# Erythema: 0—no erythema visible; 1—light red; 2—red; 3—dark red; 4—extremely dark red.
# Scaling: 0—no visible scale on the skin surface; 1—part of the skin lesion surface covered with scales; 2—most of the skin lesion surface covered with scales; 3—almost all of the skin lesion region covered with scales; 4—all of the skin lesion region covered with scales.
# Dryness and pruritus are not included in the total score.
# On the 14th day of the test, the spleen weight was collected.
# After the test, all mice were euthanized by excessive inhalation of carbon dioxide. The skin was collected and divided into four parts, one of which was fixed in a tissue fixative solution for 24 hours for the pathological is detection. It was dehydrated, then embedded in paraffin and made into 4-micron sections. Skin sections were stained with hematoxylin eosin to observe the infiltration of the stratum corneum, the epidermal layer, the dermis layer and the inflammatory cell. When measuring the thickness of the epidermal layer, the stained skin sections were scanned with a Leca Aperio CS2 scanner at 200×magnification, and then the histopathological changes were observed and scored.
# The specific criteria of the pathological score were as follows: munro microabscess found in the epidermal layer 2.0 points; hyperkeratosis 0.5 points; parakeratosis 1.0 points; the thinning or disappearing of the granular layer 1.0 points; the thickening of acanthosis 1.0 points; the extension and fluctuation of cuticular process 0.5, 1.0 and 1.5 points respectively according to the mild, moderate and severe degrees. […]
smiles,measurement,setting,value
"NC(=O)c1cnc(Nc2ccc3c(c2)OC[C@H]2CN(S(=O)(=O)C4CC4)CCN32)nc1NC1CC1 [Compound (I), (R)-4-(cyclopropylamino)-2-((3-(cyclopropylsulfonyl)-1,2,3,4,4a,5-hexahydrobenzo[b]pyrazolo[1,2-d][1,4]oxazin-8-yl)amino)pyrimidine-5-arboxamide]",Ear thickness Left,"3 mpk PO bid, 1st Day",0.15 ± 0.00 mm
same,Ear thickness Right,"3 mpk PO bid, 1st Day",0.15 ± 0.00 mm
same,Ear thickness Right-Left,"3 mpk PO bid, 1st Day",0.00 ± 0.00 mm
same,Skin PASI Total Score,"3 mpk PO bid, 1st Day",0.00 ± 0.00
same,Skin PASI score Erythema,"3 mpk PO bid, 1st Day",0.00 ± 0.00
same,Skin PASI score Scaling,"3 mpk PO bid, 1st Day",0.00 ± 0.00
same,Skin PASI score Thickness,"3 mpk PO bid, 1st Day",0.00 ± 0.00
same,Skin thickness,"3 mpk PO bid, 1st Day",0.32 ± 0.00 mm
same,Ear thickness Left,"3 mpk PO bid, 14th Day",0.16 ± 0.00 mm
same,Ear thickness Right,"3 mpk PO bid, 14th Day",0.48 ± 0.01 mm
same,Ear thickness Right-Left,"3 mpk PO bid, 14th Day",0.32 ± 0.01 mm
same,Skin PASI Total Score,"3 mpk PO bid, 14th Day",8.10 ± 0.23
same,Skin PASI score Erythema,"3 mpk PO bid, 14th Day",3.00 ± 0.00
same,Skin PASI score Scaling,"3 mpk PO bid, 14th Day",2.30 ± 0.15
same,Skin PASI score Thickness,"3 mpk PO bid, 14th Day",2.80 ± 0.13
same,Skin thickness,"3 mpk PO bid, 14th Day",0.51 ± 0.01 mm
same,Epidermal thickness,3 mpk PO bid,136.10 ± 5.96 μm
same,IL-6 content in skin (ELISA),3 mpk PO bid,554.74 ± 88.14 pg/g
same,Skin pathological score,3 mpk PO bid,7.75 ± 0.39
same,Spleen weight,3 mpk PO bid,231.44 ± 12.72 mg
same,Spleen weight/body weight (spleen index),3 mpk PO bid,14.46 ± 0.71 mg/g
same,TNF-alpha content in skin (ELISA),3 mpk PO bid,1191.74 ± 124.81 pg/g
same,Ear thickness Left,"10 mpk PO bid, 1st Day",0.14 ± 0.00 mm
same,Ear thickness Right,"10 mpk PO bid, 1st Day",0.14 ± 0.00 mm
same,Ear thickness Right-Left,"10 mpk PO bid, 1st Day",0.00 ± 0.00 mm
same,Skin PASI Total Score,"10 mpk PO bid, 1st Day",0.00 ± 0.00
same,Skin PASI score Erythema,"10 mpk PO bid, 1st Day",0.00 ± 0.00
same,Skin PASI score Scaling,"10 mpk PO bid, 1st Day",0.00 ± 0.00
same,Skin PASI score Thickness,"10 mpk PO bid, 1st Day",0.00 ± 0.00
same,Skin thickness,"10 mpk PO bid, 1st Day",0.32 ± 0.00 mm
same,Ear thickness Left,"10 mpk PO bid, 14th Day",0.15 ± 0.00 mm
same,Ear thickness Right,"10 mpk PO bid, 14th Day",0.44 ± 0.00 mm
same,Ear thickness Right-Left,"10 mpk PO bid, 14th Day",0.28 ± 0.00 mm
same,Skin PASI Total Score,"10 mpk PO bid, 14th Day",7.70 ± 0.60
same,Skin PASI score Erythema,"10 mpk PO bid, 14th Day",2.90 ± 0.10
same,Skin PASI score Scaling,"10 mpk PO bid, 14th Day",2.40 ± 0.27
same,Skin PASI score Thickness,"10 mpk PO bid, 14th Day",2.40 ± 0.27
same,Skin thickness,"10 mpk PO bid, 14th Day",0.53 ± 0.02 mm
same,Epidermal thickness,10 mpk PO bid,131.63 ± 7.15 μm
same,IL-6 content in skin (ELISA),10 mpk PO bid,641.83 ± 96.28 pg/g
same,Skin pathological score,10 mpk PO bid,7.45 ± 0.80
same,Spleen weight,10 mpk PO bid,182.01 ± 9.11 mg
same,Spleen weight/body weight (spleen index),10 mpk PO bid,11.71 ± 0.56 mg/g
same,TNF-alpha content in skin (ELISA),10 mpk PO bid,1432.02 ± 152.77 pg/g
same,Ear thickness Left,"30 mpk PO bid, 1st Day",0.14 ± 0.00 mm
same,Ear thickness Right,"30 mpk PO bid, 1st Day",0.14 ± 0.00 mm
same,Ear thickness Right-Left,"30 mpk PO bid, 1st Day",0.00 ± 0.00 mm
same,Skin PASI Total Score,"30 mpk PO bid, 1st Day",0.00 ± 0.00
same,Skin PASI score Erythema,"30 mpk PO bid, 1st Day",0.00 ± 0.00
same,Skin PASI score Scaling,"30 mpk PO bid, 1st Day",0.00 ± 0.00
same,Skin PASI score Thickness,"30 mpk PO bid, 1st Day",0.00 ± 0.00
same,Skin thickness,"30 mpk PO bid, 1st Day",0.32 ± 0.00 mm
same,Ear thickness Left,"30 mpk PO bid, 14th Day",0.16 ± 0.00 mm
same,Ear thickness Right,"30 mpk PO bid, 14th Day",0.41 ± 0.01 mm
same,Ear thickness Right-Left,"30 mpk PO bid, 14th Day",0.26 ± 0.01 mm
same,Skin PASI Total Score,"30 mpk PO bid, 14th Day",5.50 ± 0.31
same,Skin PASI score Erythema,"30 mpk PO bid, 14th Day",2.90 ± 0.10
same,Skin PASI score Scaling,"30 mpk PO bid, 14th Day",1.20 ± 0.13
same,Skin PASI score Thickness,"30 mpk PO bid, 14th Day",1.40 ± 0.16
same,Skin thickness,"30 mpk PO bid, 14th Day",0.50 ± 0.01 mm
same,Epidermal thickness,30 mpk PO bid,121.75 ± 8.17 μm
same,IL-6 content in skin (ELISA),30 mpk PO bid,638.09 ± 59.63 pg/g
same,Skin pathological score,30 mpk PO bid,5.55 ± 0.90
same,Spleen weight,30 mpk PO bid,146.81 ± 7.71 mg
same,Spleen weight/body weight (spleen index),30 mpk PO bid,9.27 ± 0.47 mg/g
same,TNF-alpha content in skin (ELISA),30 mpk PO bid,1236.41 ± 100.8 pg/g
same,Ear thickness Left,"60 mpk PO bid, 1st Day",0.14 ± 0.00 mm
same,Ear thickness Right,"60 mpk PO bid, 1st Day",0.14 ± 0.00 mm
same,Ear thickness Right-Left,"60 mpk PO bid, 1st Day",0.00 ± 0.00 mm
same,Skin PASI Total Score,"60 mpk PO bid, 1st Day",0.00 ± 0.00
same,Skin PASI score Erythema,"60 mpk PO bid, 1st Day",0.00 ± 0.00
same,Skin PASI score Scaling,"60 mpk PO bid, 1st Day",0.00 ± 0.00
same,Skin PASI score Thickness,"60 mpk PO bid, 1st Day",0.00 ± 0.00
same,Skin thickness,"60 mpk PO bid, 1st Day",0.33 ± 0.01 mm
same,Ear thickness Left,"60 mpk PO bid, 14th Day",0.15 ± 0.00 mm
same,Ear thickness Right,"60 mpk PO bid, 14th Day",0.38 ± 0.01 mm
same,Ear thickness Right-Left,"60 mpk PO bid, 14th Day",0.22 ± 0.01 mm
same,Skin PASI Total Score,"60 mpk PO bid, 14th Day",4.60 ± 0.34
same,Skin PASI score Erythema,"60 mpk PO bid, 14th Day",2.00 ± 0.15
same,Skin PASI score Scaling,"60 mpk PO bid, 14th Day",1.20 ± 0.13
same,Skin PASI score Thickness,"60 mpk PO bid, 14th Day",1.40 ± 0.16
same,Skin thickness,"60 mpk PO bid, 14th Day",0.43 ± 0.02 mm
same,Epidermal thickness,60 mpk PO bid,113.28 ± 6.95 μm
same,IL-6 content in skin (ELISA),60 mpk PO bid,499.72 ± 95.81 pg/g
same,Skin pathological score,60 mpk PO bid,5.05 ± 0.88
same,Spleen weight,60 mpk PO bid,125.73 ± 4.63 mg
same,Spleen weight/body weight (spleen index),60 mpk PO bid,8.01 ± 0.28 mg/g
same,TNF-alpha content in skin (ELISA),60 mpk PO bid,1188.81 ± 159.63 pg/g

# Source: US20240165123A1, “USE OF A COMPOUND CONTAINING A TRICYCLIC HETEROARYL GROUP” (CSPC Zhongqi Pharmaceutical Technology (Shijiazhuang) Co., …, priority 2021, published 2024)
